Values of other authors in patent publication US20200230141A1, “BI-LAYER PHARMACEUTICAL TABLET FORMULATION” (ViiV Healthcare Company, priority 2017, published 2020).
Read-outs that look alike come from different tables or passages of the source.

Experiments:
HIV-1 strains = details: broad range of HIV-1 strains
[1] = steady state, HIV-1-infected adults
[2] = typical / standard physiologic conditions
[3] = not told

permeability [3]	Compound	potency (HIV-1 strains)	Cmax, geometric mean (% CV) ([1]; 50 mg once daily)	Cmin, geometric mean (% CV) ([1]; 50 mg once daily)	AUC(0-24), geometric mean (% CV) ([1]; 50 mg once daily, population PK (SPRING-1, SPRING-2))	Cmax, geometric mean (% CV) ([1]; 50 mg twice daily)	Cmin, geometric mean (% CV) ([1]; 50 mg twice daily)	AUC(0-24), geometric mean (% CV) ([1]; 50 mg twice daily, population PK (VIKING, VIKING-3))	solubility [2]
	C[C@@H]1CCO[C@H]2Cn3cc(C(=O)NCc4ccc(F)cc4F)c(=O)c(O)c3C(=O)N12 [Dolutegravir, (4R,12aS)—N-[(2,4-difluorophenyl)methyl]-7-hydroxy-4-methyl-6,8-dioxo-3,4,12,12a-tetrahydro-2H-pyrido[5,6]pyrazino[2,6-b][1,3]oxazine-9-carboxamide]	subnanomolar	3.67 (20) mcg/mL	1.11 (46) mcg/mL	53.6 (27) mcg · h/mL	4.15 (29) mcg/mL	2.12 (47) mcg/mL	75.1 (35) mcg · h/mL	slightly soluble
highly permeable	Nc1ccn([C@@H]2CS[C@H](CO)O2)c(=O)n1 (single isomer, unassigned) [lamivudine]								
